Test results from patent publication US11578055B2, “Triazacyclododecansulfonamide (“TCD”)-based protein secretion inhibitors” (KEZAR LIFE SCIENCES, priority 2018, dated 2023).

What was measured:
[1] = In Vitro Microsome Stability Assay (rat); type: in vitro ADME
How it was run: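 The value reported is the percentage of parent left after 30 min, calculated from analyte/IS peak-area ratios relative to time zero by LC-MS/MS. Incubations ran at 37° C in 0.1 M potassium phosphate with NADPH and microsomes (stock 20 mg/mL), with compound added from a 0.25 mM DMSO stock. Acetonitrile containing IS stopped the reactions.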

IL-1β = assay: Human PBMC Cytokine Assay: IL-1β; type: cell-based; settings: LPS stimulation, 24 hours
Method: Human PBMC were freshly isolated from whole blood collections of 3 normal donors utilizing density gradient centrifugation followed by red blood cell lysis. PBMC from each donor were assayed separately. Cells were suspended in RPMI 1640 media supplemented with 5% fetal bovine serum, 2 mM L-glutamine, 10 mM HEPES, and 1× penicillin/streptomycin. PBMC were seeded at 200,000 cells/well in 96-well round-bottom plates either without stimulation or with stimulation by lipopolysaccharide (LPS, 1 μg/mL) or antibodies against human CD3 (plate-bound, 2 μg/mL) and human CD28 (soluble, 2 μg/mL). Serial dilutions of compound in DMSO/media were simultaneously added and PBMC were incubated at 37° C., 5% CO2 for 24 hours. After 24 hours, plates were centrifuged and half of the supernatant volume removed for cytokine analysis by electrochemiluminescent immunoassay (U-PLEX® Biomarker Multiplex, Meso Scale Discovery). For viability analysis, CellTiter-Glo® (Promega) was added to the remaining material in each well and quantified via luminescent plate reader.

B16F10 cells = assay: Efficacy study: tumor growth and body weight in a B16F10 model; type: in vivo, C57BL/6 mice; settings: B16F10 refractory model, once-a-week dosing, compared to anti-PD-1 therapy
Method: Efficacy Study: Effect of Compound A87 on Tumor Growth and Body Weight in a B16F10 Model Comparted to Anti-PD-1 Therapy.
Female C57BL/6 mice (7-8 week old) were injected in the flank subcutaneously with 5×10^6 B16F10 cells in 0.1 ml on Day 0. On Day 3, compound A87 formulated in 10% ETOH/10% Kolliphor EL was administered IV 30 mg/kg QW, IV 10 mg/kg D1D2, or IP 15 mg/kg QOD. Anti-PD1 antibody treatment (RMP1-14 from Bioxcell, 200 μg) was administered i.p. on a QOD×3 dose schedule. Tumor size was monitored with a digital caliper (Fowler) every 2-3 d until reaching a size of 1.5-2.0 cm and expressed as volume (length×width×height). B16F10, a melanoma line, was obtained from ATCC. C57/BL6 mice were purchased from Charles rivers laboratories.

[2] = tested on: HER3 signal sequence plus 4 amino acids fused to Gaussia Luciferase (HER3-ss+4aa/Gaussia Luciferase); assay: Dox Induced HER3-ss-Gluc Assay; type: cell-based; settings: 24 hr, doxycycline induced, Flp-In 293 T-REx cells; read-out: 24 hr Dox Inducible Her3(ss + 4) Gluc 293FRT/TO: Mean 1050
How it was run: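 Stable Flp-In 293 T-REx line expressing HER3 signal sequence+4aa/Gaussia luciferase under doxycycline-inducible control. Cells plated the day before; compound dilutions added in doxycycline-containing medium and incubated at 37° C, 5% CO2.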

[3] = rat liver microsomes, 30 min w/ NADPH

Liver Microsome Stability-% Left after 30 min w/ NADPH (%) Rat ([1]; rat, 30 min, NADPH) [%]	IC50 (IL-1β) [nM]	IC50 [2] [nM]	Liver Microsome Stability-% Left after 30 min w/ NADPH (%) Rat [1, 3] [%]	SMILES	tumor growth inhibition (B16F10 cells)
43.6	> 25000	–	–	C[C@H]1CN(S(=O)(=O)c2ccc(N(C)C)cc2)CCCN(CC2CCCCC2)CCCN(S(=O)(=O)N2CCc3cc(Cl)ccc3C2)C1 [A87]	superior efficacy
–	> 25000	10.8	31.6	COc1cc(F)ccc1N1CCN(S(=O)(=O)N2CCCN(CC3CCCCC3)CCCN(S(=O)(=O)c3ccc(N(C)C)cc3)C[C@H](C)C2)CC1 [A137]	–
–	–	276	4.2	C[C@H]1CN(S(=O)(=O)c2ccc(N(C)C)cc2)CCCN(CC2CCCCC2)CCCN(S(=O)(=O)N2CCc3c(C#N)cccc3C2)C1 [A151, 2-{[(3S)-9-(cyclohexylmethyl)-5-[4-(dimethylamino)benzenesulfonyl]-3-methyl-1,5,9-triazacyclododecan-1-yl]sulfonyl}-1,2,3,4-tetrahydroisoquinoline-5-carbonitrile]	–
–	> 25000	10.9	14.5	COc1cc(F)ccc1N1CCN(S(=O)(=O)N2CCCN(CC3CCCCC3)CCCN(S(=O)(=O)c3ccc(N(C)C)cc3)C[C@H](C)C2)C[C@H]1C [A177, 4-{[(3S)-9-(cyclohexylmethyl)-5-{[(3 R)-4-(4-fluoro-2-methoxyphenyl)-3-methylpiperazin-1-yl]sulfonyl}-3-methyl-1,5,9-triazacyclododecan-1-yl]sulfonyl}-N,N-dimethylaniline]	–
